Measurements as given in ChEMBL document CHEMBL5335779, “The research progress of SARS-CoV-2 main protease inhibitors from 2020 to 2022” (Eur J Med Chem, 2023).

Key:
[1] = tested on: SARS-CoV-2; format: functional, organism-based; conditions: Severe acute respiratory syndrome coronavirus 2, Vero C1008
[2] = molecular target: T1, Replicase polyprotein 1ab (Severe acute respiratory syndrome coronavirus 2, UniProt P0DTD1); test: Inhibition of N-terminal GST-tagged SARS-CoV-2 Main protease expressed in Escherichia coli BL21 (DE3) incubated for 10 mins by FRET analysis
[3] = molecular target: T1, Replicase polyprotein 1ab; test: Inhibition of N-terminal 6His-tagges SARS-CoV-2 PLpro Wuhan (1524 to 1883 residues) expressed in Escherichia coli BL21(DE3) using Arg-Leu-Arg-Gly-Gly-AMC as substrate preincubated for 5 mins followed by substrate addition measured after 6 mins by fluorescence based assay
[4] = Clearance in CD1 mouse at 5 mg/kg, ip; format: ADME, organism-based; conditions: in vivo
[5] = molecular target: T1, Replicase polyprotein 1ab; test: Binding affinity to SARS-CoV-2 Main protease assessed as inhibition constant
[6] = tested on: SARS-CoV-2; test: Antiviral activity against SARS-CoV-2 USA-WA1/2020 infected in Vero E6 cells assessed as reduction in viral replication incubated for 3 days by viral plaque assay; format: functional, organism-based; conditions: Severe acute respiratory syndrome coronavirus 2, USA-WA1/2020, Vero C1008, 72 h
[7] = molecular target: T1, Replicase polyprotein 1ab; test: Inhibition of His-tagged SARS-CoV-2 Main protease BetaCoV/Wuhan/WIV04/2019 expressed in Escherichia coli BL21 (DE3) using Dabcyl-KTSAVLQ/SGFRKME(Edan) as substrate followed by compound addition by FRET assay
[8] = molecular target: T1, Replicase polyprotein 1ab; test: Inhibition of GST-tagged SARS-CoV-2 Main protease expressed in Escherichia coli BL21 using Dabcyl-Val-Asn-Ser-Thr-Leu-Gln-Ser-Gly-Leu-Arg-Lys-EDANS as fluorogenic substrate preincubated for 10 mins followed by substrate addition and measured after 1 hrs by FRET assay
[9] = molecular target: T1, Replicase polyprotein 1ab; test: Inhibition of N-terminal GST-tagged SARS-CoV-2 Main protease expressed in Escherichia coli BL21 (DE3) using DABCYL-KTSAVLQSGFRKME-EDANS as fluorogenic substrate preincubated for 10 mins followed by compound addition and measured after 1 hr by FRET assay
[10] = molecular target: T1, Replicase polyprotein 1ab; test: Inhibition of full length GST-tagged SARS-CoV-2 Main protease expressed in Escherichia coli
[11] = molecular target: T1, Replicase polyprotein 1ab; test: Binding affinity to SARS-CoV-2 Main protease expressed in Escherichia coli BL21 (DE3) assessed as inhibition constant
[12] = tested on: SARS-CoV-2; test: Antiviral activity against SARS-CoV-2 infected in human Calu-3 cells assessed as reduction in viral growth; format: functional, organism-based; conditions: Severe acute respiratory syndrome coronavirus 2, Calu-3
[13] = molecular target: Replicase polyprotein 1ab (Severe acute respiratory syndrome-related coronavirus, UniProt P0C6X7); test: Inhibition of recombinant SARS-CoV-1 Main protease
[14] = Inhibition of MERS-CoV Main protease; set-up: species or system Middle East respiratory syndrome-related coronavirus
[15] = tested on: SARS-CoV-2; format: functional, organism-based; conditions: Severe acute respiratory syndrome coronavirus 2, Vero C1008, 64 h
[16] = tested on: SARS-CoV-2; test: Antiviral activity against SARS-CoV-2 WA1 infected in human A549-hACE2-TMPRSS2 cells assessed as reduction in viral replication; format: functional, organism-based; conditions: Severe acute respiratory syndrome coronavirus 2, WA1, A549-hACE2-TMPRSS2
[17] = tested on: SARS-CoV-2; format: functional, organism-based; conditions: Severe acute respiratory syndrome coronavirus 2, Vero C1008; remark: listed apart in the source
[18] = tested on: Human coronavirus 229E; test: Antiviral activity against HCoV-229E infected in human Huh-7 cells assessed as reduction in viral replication; format: functional, organism-based
[19] = Clearance in Sprague-Dawley rat at 20 mg/kg, ip by LC-MS/MS analysis; format: ADME, organism-based; conditions: in vivo
[20] = Oral bioavailability in Sprague-Dawley rat at 20 mg/kg by LC-MS/MS analysis; format: ADME, organism-based; conditions: in vivo
[21] = Half life in Sprague-Dawley rat at 20 mg/kg, ip by LC-MS/MS analysis; format: ADME, organism-based; conditions: in vivo
[22] = molecular target: T1, Replicase polyprotein 1ab; test: Binding affinity to N-terminal full length SARS-CoV-2 Main protease assessed as inhibition constant
[23] = Binding affinity to MERS-CoV MPro assessed as inhibition constant; set-up: species or system Middle East respiratory syndrome-related coronavirus
[24] = tested on: Middle East respiratory syndrome-related coronavirus; test: Antiviral activity against MERS-CoV infected in Vero E6 cells assessed as reduction in viral replication measured after 48 hrs by qRT-PCR assay; format: functional, organism-based; conditions: Vero C1008, 48 h

SMILES: Cn1sc(=O)n(Cc2ccccc2)c1=O
- IC50 [1]: 670 nM

SMILES: O=C(Oc1cncc(Cl)c1)c1cccs1
- IC50 [2]: 80 nM

SMILES: C[C@H](NC(=O)OCc1ccccc1)C(=O)N[C@@H](C)C(=O)NN(CC(N)=O)C(=O)/C=C/C(=O)c1ccccc1
- IC50 [3]: 490 nM

SMILES: O=C[C@H](C[C@@H]1CCNC1=O)NC(=O)[C@H](CC1CCCCC1)NC(=O)c1cc2ccccc2[nH]1
- CL/F [4]: 17.4 mL/min/kg

SMILES: C=CCn1ccc2c(C(=O)Oc3cncc(Cl)c3)cccc21
- Ki [5]: 73 nM

SMILES: O=C(N[C@@H](CC1CC1)C(=O)N[C@@H](C[C@@H]1CCNC1=O)C(O)S(=O)(=O)O)OCCc1cccc(Cl)c1 (some centres undefined)
- EC50 [6]: 700 nM

SMILES: O=C(N[C@@H](CC1CC1)C(=O)N[C@@H](C[C@@H]1CCNC1=O)C(O)S(=O)(=O)O)OCc1cccc(F)c1 (some centres undefined)
- IC50 [7]: 70 nM
- EC50 [6]: 570 nM

SMILES: COc1cccc(-n2[se]c3ccccc3c2=O)c1
- IC50 [8]: 4080 nM

SMILES: CC(C)(C)c1ccc(N(C(=O)CCl)C(C(=O)NC2CCCCC2)c2cccnc2)cc1 (centres undefined)
- IC50 [9]: 410 nM

SMILES: O=C[C@H](C[C@@H]1CCNC1=O)NC(=O)[C@H](Cc1ccccc1)NC(=O)c1cc2ccccc2[nH]1
- IC50 [10]: 30 nM

SMILES: C=CS(=O)(=O)N(c1ccc(C(C)(C)C)cc1)C(C(=O)NC1CCCCC1)c1cccnc1 (centres undefined)
- IC50 [9]: 420 nM

SMILES: Cc1c(Cl)cc(N2CCN(C(=O)c3cc(=O)[nH]c(=O)[nH]3)CC2)cc1Cl
- Ki [11]: 1400 nM

SMILES: O=c1c2ccccc2[se]n1-c1cccc(C(F)(F)F)c1
- EC50 [12]: 840 nM

SMILES: O=C(Sc1ncccn1)c1cc2ccccc2[nH]1
- IC50 [13]: 61 nM
- IC50 [14]: 302 nM

SMILES: C[C@H](NC(=O)[C@@H](c1cccnc1)N(C(=O)C(Cl)Cl)c1ccc(-c2ccccc2)cc1)c1ccccc1
- EC50 [15]: 900 nM
- EC50 [16]: 2050 nM

SMILES: O=C(NCc1cccs1)[C@@H]1CN(C(=O)c2cccnc2)CCN1c1ccc(Cl)c(Cl)c1
- EC50 [17]: 1100 nM

SMILES: CC(C)(C)[C@H](NC(=O)C(F)(F)F)C(=O)N1C[C@H]2[C@@H]([C@H]1C(=O)N[C@@H](C[C@@H]1CCNC1=O)C(=O)CO)C2(C)C
- IC50 [18]: 13 nM

SMILES: CC(C)(C)[C@H](NC(=O)C(F)(F)F)C(=O)N1C[C@H]2[C@@H]([C@H]1C(=O)N[C@@H](C[C@@H]1CCNC1=O)C(=O)c1nc3ccccc3s1)C2(C)C
- IC50 [18]: 24 nM

SMILES: CC(C)C[C@H](NC(=O)[C@@H](NC(=O)c1ccc(Cl)cc1)C(C)C)C(=O)N[C@H](C=O)C[C@@H]1CCCNC1=O
- IC50 [10]: 140 nM

SMILES: CC1(C)[C@@H]2[C@@H](C(=O)N[C@H](C=O)C[C@@H]3CCNC3=O)N(C(=O)COc3ccc(OC(F)(F)F)cc3)C[C@@H]21
- CL/F [19]: 22.7 mL/min/kg
- bioavailability [20]: 78%
- half-life [21]: 4.53 h

SMILES: C[C@H](NC(=O)[C@@H](c1cccnc1)N(C(=O)c1ccco1)c1ccc(-c2ccccc2)cc1)c1ccccc1
- Ki [22]: 101000 nM

SMILES: O=C(NCc1cccs1)[C@@H]1CN(C(=O)CCl)CCN1c1ccc(Cl)c(Cl)c1
- Ki [23]: 180 nM
- EC50 [24]: 2640 nM

SMILES: Nc1cccn([C@@H](CC2CC2)C(=O)N[C@@H](C[C@@H]2CCNC2=O)C(=O)C(=O)NCc2ccccc2)c1=O
- IC50 [13]: 4000 nM
